In PMC8729174 (RSC Chemical Biology, 2021):
pIC50, pKd: −log10 of the molar value.

Tests used:
[1] = tested on: sstr2-negative CHO cell line; conditions: read-out: IC50 on CHO cells; cited from earlier work
[2] = molecular target: sstr2; conditions: read-out: Kd for sstr2; cited from earlier work
[3] = tested on: Ar42J cells; experiment: Cell death kinetics; assay type: cell-based, rat; conditions: MTS, n = 3, 6 at 60 nM, α-amanitin 1 at 10 μM

Q: With “N-propargyl-dideoxy-amanitin [compound 4]” as the substance, how does the pIC50 [1] read?
A: 5.70 to 6.00

Q: With octreotate [compound 2] as the substance, how does the pKd [2] read?
A: ~9.40

Q: With α-amanitin [compound 1] as the substance, how does the pIC50 [1] read?
A: 6.15 to 6.52

Q: What about the “cell viability after 24 hours of incubation (in words)” value ([3]; 24 h) of the same substance?
A: remained fully viable

Q: And the “cell viability after 48 hours of incubation (in words)” value ([3]; 48 h)?
A: loss of cell viability was only observed after 48 hours
